In patent publication US20080138284A1, “Novel Peptides That Promote Lipid Efflux” (Lipid Sciences, Inc., priority 2006, published 2008):
Ends that are not written are not given here.

Columns and labels:
[1] = test system: apoE knockout mice on a chow diet and LDL receptor knockout mice on a western high fat diet; assay: Aortic arch atherosclerosis in knockout mice; type: in vivo, mouse; details: 2 mg/kg to 50 mg/kg iv or ip, 2 to 3 times per week, approximately 6 weeks
Method: The ability of the peptides of the present invention and associated fragments are tested in apoE knockout mice on a chow diet and LDL receptor knockout mice on a western high fat diet to determine the effect of these peptides to reduce atherosclerosis in a mouse model system. One or more of the peptides of the present invention, in a range of concentration of 2 mg/kg to 50 mg/kg, is injected intravenously (iv) or intraperitoneally (ip) 2 to 3 times per week over a period of approximately 6 weeks. Aortic atherosclerosis is quantitated in the aortic arch before administration of the peptides and after the 6 week period of administration. (Wu et al., J. Biol. Chem.; 2004: 279, 22913-22925).

[2] = test system: FU5AH rat hepatoma cells (SR-B1); assay: SR-B1 mediated cholesterol efflux; type: cell-based; details: peptide samples run at 30 μg/ml
From the text: (§1) The methods employed in this study have been described in U.S. Pat. Nos. 7,029,863, 7,060,452, U.S. Patent Application Publication No. 2005/0191715, and in Moya et al., Arteriosclerosis & Thrombosis 1994:14:1056-1065 and Liu et al., J. Biol. Chem., 2003:278(44), 42976-42984. SR-B1 mediated cholesterol efflux is examined in FU5AH rat hepatoma cells and ABCA1 mediated cholesterol efflux is examined in J774 mouse macrophage cells as described in these references.

[3] = test system: J774 mouse macrophage cells (ABCA1); assay: ABCA1 mediated cholesterol efflux; type: cell-based; details: peptide samples run at 30 μg/ml
From the text: as §1

[4] = test system: apoE knockout and LDL-receptor knockout mice; assay: Aortic atherosclerosis after ip peptide injection in ApoE knockout and LDL receptor knockout mice; type: in vivo, mouse; details: 30 mg/kg ip three times per week, 4-5 or 8-10 weeks; 'proposed studies'
Method: ApoE knockout and LDL receptor knockout mice, two well established animal models for the study of atherosclerosis, are injected with either saline as control or the synthetic peptides of the present invention to ascertain if these peptides can be used to increase HDL and decrease atherosclerosis.
The mice receive 3 injections per week for either […] or 8-10 weeks. After the completion of the injection, the amount of hardening of the arteries or atherosclerosis is determined in the control injected animals and peptide injected animals to determine if the injections of the synthetic peptide decreased development of atherosclerosis.
The proposed studies test if intraperitoneal infusions of the apoA-I mimetic peptides of the present invention result in decreased aortic atherosclerosis in apoE and LDL receptor knockout mice, two well established mouse models of atherosclerosis.
Four to six week old C57B1/6 mice, apoE knockout (JAX 2052) and LDL-receptor knockout (JAX 2207) mice, all in the C57B1/6 background, are obtained from Jackson Laboratories. During the entire study, C57B1/6 and apoE knockout mice are maintained on a regular chow diet (0.02% cholesterol, 3% fat) and LDL-receptor mice are maintained on a Western diet (TD88137; Harlan Teklad; Madison, Wis. —containing 0.20% cholesterol and 21% fat).
In the first study (Infusion Study A), C57B1/6 mice as well as apoE knockout and LDL receptor knockout mice are injected by the intraperitoneal (ip) route or intravenous (iv) route with synthetic peptides of the present invention mimetic (30 mg/kg) on up to four different occasions two weeks apart. To evaluate changes in the plasma lipid and lipoprotein profile associated with injection of the synthetic peptide, blood for lipid analyses is obtained before and at 2, 4, 6, 24 and 48 hours after peptide injection. At the end of the study the animals are sacrificed.
For infusion studies B and C, mice are injected ip with either placebo or a synthetic peptide of the present invention (30 mg/kg) three times per week for either 4 to 5 weeks (Infusion Study B) or 8 to 10 weeks (Infusion Study C). Blood for lipid and lipoprotein analyses is obtained at the beginning of the study (day 0) and every two weeks after placebo/peptide injection and at the completion of the study. At the completion of the study (4 to 5 weeks for Infusion Study B and 8 to 10 weeks for Infusion Study C), the animals are sacrificed, organs harvested for analyses of cholesterol content and for aortic atherosclerosis.
For Infusion Study A, 5 four to six week old C57B1/6, apoE knockout (JAX 2052) and LDL receptor knockout (JAX 2207) control mice receive ip or iv injections of the synthetic peptide of the present invention for up to four times two weeks apart. The sequence of procedures for this study is as follows: • 1) Mice are first anaesthetized by using 1-3% isoflurane by inhalation prior to each ip injection to insure appropriate and complete delivery of placebo/peptide. • 2) Mice are injected with either placebo (0.2 ml saline) or apoA-I synthetic peptide (30 mg/kg in 0.2 ml saline) via either the intraperitoneal or intravenous route. • 3) In order to evaluate changes in the plasma lipids and lipoproteins in the time-frame between injections, each mouse in this study group is bled from the retro-orbital sinus following administration of a topical anesthesia. before and at 2, 4, 6, 24 and 48 hours after the peptide injection. No more than 300 ul blood is drawn during this 48 hour period. • 4) At the end of infusion study A all mice are sacrificed by using Avertin (2.5%, 0.011 ml/gm, ip) or ketamine (80 ug/gm, ip). […]

Substance	atherosclerosis in the aortic arch [1]	effect on cholesterol efflux from the Fu5AH cells (SRB1 pathway) [2]	efflux of cholesterol from J774 macrophage cells (ABCA1 pathway) [3]	aortic atherosclerosis compared to controls [4]
GEEMRDRARAHVDALRTHAKPVLLESFKVSFLSALEEYTKK [SEQ ID NO:72]	reduce atherosclerosis in the aortic arch	negligible or no effect	stimulate efflux of cholesterol	decrease aortic atherosclerosis compared to controls
SDELRQRLAARLEALKENAKPVLLESFKVSFLSALEEYTKK [SEQ ID NO:80]	reduce atherosclerosis in the aortic arch	negligible or no effect	stimulate efflux of cholesterol	decrease aortic atherosclerosis compared to controls
Ac-Leu Glu Ser Ala Lys Val Ser Ala Leu Ser Ala Leu Glu Glu Ala Thr Lys Lys Ala Lys Pro Val Leu Leu Glu Ser Phe Lys Val Ser Phe Leu Ser Ala Leu Glu Glu Tyr Thr Lys Lys-NH2 (Ac-LESAKVSALSALEEATKKAKPVLLESFKVSFLSALEEYTKK-NH2) [SEQ ID NO:372]	reduce atherosclerosis in the aortic arch	negligible or no effect	stimulate efflux of cholesterol	decrease aortic atherosclerosis compared to controls
Ac-Gly Glu Glu Met Arg Asp Arg Ala Arg Ala His Val Asp Ala Leu Arg Thr His Ala Lys Pro Val Leu Leu Glu Ser Phe Lys Val Ser Phe Leu Ser Ala Leu Glu Glu Tyr Thr Lys Lys-NH2 (Ac-GEEMRDRARAHVDALRTHAKPVLLESFKVSFLSALEEYTKK-NH2) [SEQ ID NO:354]	reduce atherosclerosis in the aortic arch	negligible or no effect	stimulate efflux of cholesterol	decrease aortic atherosclerosis compared to controls
LESAKVSALSALEEATKKAKPVLLESFKVSFLSALEEYTKK [SEQ ID NO:89]	reduce atherosclerosis in the aortic arch	negligible or no effect	stimulate efflux of cholesterol	decrease aortic atherosclerosis compared to controls
Ac-Ser Asp Glu Leu Arg Gln Arg Leu Ala Ala Arg Leu Glu Ala Leu Lys Glu Asn Ala Lys Pro Val Leu Leu Glu Ser Phe Lys Val Ser Phe Leu Ser Ala Leu Glu Glu Tyr Thr Lys Lys-NH2 (Ac-SDELRQRLAARLEALKENAKPVLLESFKVSFLSALEEYTKK-NH2) [SEQ ID NO:355]	reduce atherosclerosis in the aortic arch	negligible or no effect	stimulate efflux of cholesterol	decrease aortic atherosclerosis compared to controls
